Data reported in patent US20050009151A1, “Methods for the stereospecific and enantiomeric enrichment of beta-amino acids” (Pharmacia Corporation, priority 2003, published 2005).

Experiments:
[1] = test system: gamma aminobutyrate transaminase; conditions: J. Biochem 81, 1375-1381, 1977; cited from earlier work
[2] = test system: α-alanine aminotransferase; conditions: J. Biochem 81, 1375-1381, 1977; cited from earlier work
[3] = test system: Alcaligenes eutrophus L-β-aminotransferase; test: Amino donor screen, production of β-phenylalanine from 3-keto-3-phenylpropionic acid; format: biochemical; conditions: 200 mM amino donor, pyruvate decarboxylase, 24 hours
Experimental: The assays contained: 0.1-0.3 mg/ml protein, 10 mg/ml keto acceptor, 200 mM amino donor, 0.1 mM pyridoxal phosphate, and 100 mM potassium phosphate, at pH 8.0. 0.1 units of pyruvate decarboxylase was included to prevent the reversible reaction from reaching equilibrium. The reactions were run at 37° C. with gentle stirring for 24 hours. At 24 hours reaction time, 0.1 ml samples were withdrawn, acidified with addition of 0.1 ml 0.1N HCl, and centrifuged. The supernatant solution was collected into HPLC sample vials. Conversion of amino acid to the corresponding ketone was quantified using reverse phase HPLC. Amino donors screened were (L)-alanine, (D)-alanine, and β-alanine.

[4] = test system: β-aminotransferase from Alcaligenes eutrophus; test: Synthesis of β-amino acid from β-keto acid with cell lysate from Alcaligenes eutrophus; format: biochemical; conditions: approximately 45 mM substrate, approximately 84 mM alanine, 47 hours
Experimental: A buffer consisting of 0.3M Tricine, 15 mM MgSO4, enough pyridoxal phosphate to impart a pale yellow color and 0.3M sodium glutamate (for deamination reactions) or 0.3 M 2-ketoglutarate monopotassium salt (for synthesis reactions) was prepared.
[…] Reactions were typically run at 1 ml scale with gentle shaking at 26° C.
10 ul of 2N HCl was added to a plastic screw capped vial and 90ul of sample was then added. The pH of the mixture confirmed to be below 4 and the mixture was centrifuged in a microcentrifuge at maximum speed for about 2 minutes to remove precipitated materials.
Samples were derivatized using Marfey's reagent, N•-(2,4-dinitro-5-fluorophenyl)-L-alaninamide. A stock solution of 10 mg/mL in acetone of this reagent was prepared. Either 20 or 40 ul of bioconversion sample was added to 20 ul 1.3 M KHCO3. To this was added 80 ul of the stock reagent solution, the vial sealed tightly, and heated at 70° C. for 10 minutes. As needed, after cooling to room temperature, the heated samples were centrifuged to remove solids. The supernatants were analyzed using an Eclipse XDB-C8 column, 4.6×150 mm, eluting with methanol gradient in water, from 50% methanol to 100% methanol. Both solvents were acidified with 0.1% trifluoroacetic acid. […]

Compound | activity on substrate [1] | activity on substrate [2] | utilized by the enzyme as an amino donor in the production of β-phenylalanine [3] | 2-fluoro-beta-phenylalanine formed, using beta-phenylalanine as standard [4]
NCCCC(=O)O [gamma aminobutyrate] | 100 | 43 |  | 
NCCC(=O)O [β-alanine] | 3 | 100 | Only (L)-alanine was utilized by the enzyme | 
C[C@@H](N)C(=O)O [(D)-alanine] |  |  | Only (L)-alanine was utilized by the enzyme | 
O=C(O)CC(=O)c1ccccc1F [3-(2-Fluorobenzene)beta-oxopropanoic acid] |  |  |  | approximately 0.1 mg/mL
C[C@H](N)C(=O)O [(L)-alanine] |  |  | utilized by the enzyme as an amino donor | 
